From patent publication US10889566B2, “Derivatives and composition of quinoline and naphthyridine” (CHULABHORN FOUNDATION, priority 2017, dated 2021)
In brackets after ≈: the same amount, converted by molar mass. Where a name gives a salt, the structure may show the parent alone.

Legend:
[1] = system: acute lymphoblastic leukemia (MOLT-3); experiment: cells; settings: for IC50 (μg/mL) MOLT-3: MOLT-3 (Acute lymphoblastic leukemia), mean ± standard error, triplicate
Protocol: (§1) Background control wells contained the same volume of the complete culture medium. […] Samples at various concentrations were added to the microplate, which was incubated for another 48 h. Cell viability was determined by staining with MTT assay [3(4,5-dimethylthiazol-2-yl)-2-5diphenyl tetrazolium bromide (Sigma-Aldrich, St. Louis, Mo., USA)]. The reagent was dissolved in phosphate buffered saline at 5 mg/mL and filtered to sterilize and remove the small amount of insoluble residue present in some batches of MTT. […] Subsequently, dimethyl sulfoxide (Merck, Germany) (100 μL) was added to dissolve the resulting formazan by using sonication. The plates were read on a microplate reader (Molecular Devices, CA, USA). OD was measured at testing wavelength of 550 nm and reference wavelength of 650 nm.
XTT assay (3′-[1-[(phenylamino)-carbonyl]-3,4-tetrazolium]-bis(4-methoxy-6-nitro)benzene-sulfonic acid hydrate) for suspension cells was performed for acute lymphoblastic leukemia (MOLT-3).

lung carcinoma = experiment: cells; settings: for IC50 (μg/mL) A549: A549 (Lung carcinoma), mean ± standard error, triplicate
Protocol: as §1

hepatocarcinoma = experiment: cells; settings: for IC50 (μg/mL) HepG2: HepG2 (Hepatocarcinoma), mean ± standard error, triplicate; for IC50: Homo sapiens, HepG2, read-out: IC50 (μg/mL) HepG2
Protocol: as §1

cholangiocarcinoma = experiment: cells; settings: for IC50 (μg/mL) HuCCA-1: HuCCA-1 (Cholangiocarcinoma), mean ± standard error, triplicate
Protocol: as §1

HIV-1 RT = HIV-1 RT (Human immunodeficiency virus type 1 group M subtype B, UniProt P04585); experiment: In vitro HIV-1 reverse transcriptase (HIV-1 RT) kit assay; format: biochemical; settings: for inhibition at 1 µM: read-out: Inhibition rate (%) (HIV-RT kit assay) (1 μM)
Protocol: In Vitro HIV-1 Reverse Transcriptase (HIV-1 RT) Kit Assay
The HIV-RT inhibition assay was performed using an RT assay kit (Roche) according to the protocol of the kit. […] After 1 h of incubation at 37° C., the reaction mixture was transferred to a streptavidine-coated microtiter plate (MTP). Biotin-labeled dNTPs were incorporated in the template, because of the activity of RT bound to steptavidine. The unbound dNTPs were washed with wash buffer, and antidigoxigenin-peroxidase (anti-DIG-POD) was added to the MTP. The digoxigenin-labeled dNTPs incorporated in the template was bound to the anti-DIG-POD antibody. The unbound anti-DIG-POD was washed, and the peroxide substrate (ABST) was added to the MTP. A colored reaction product was produced during the cleavage of the substrate catalyses with a peroxide enzyme. […] The resulting color intensity was directly proportional to the actual RT activity. The percentage inhibitory activity of the RT inhibitors was calculated by comparing it to that of the sample without an inhibitor.

[2] = system: BxPC-3 pancreatic cancer cells; settings: read-out: in vitro EC50; cited from earlier work

| Compound | IC50 (μg/mL) MOLT-3 [1] [µg/mL] | IC50 (μg/mL) A549 (lung carcinoma) [µg/mL] | IC50 (μg/mL) HepG2 (hepatocarcinoma) [µg/mL] | IC50 (μg/mL) HuCCA-1 (cholangiocarcinoma) [µg/mL] | Inhibition rate (%) (HIV-RT kit assay) (1 μM) (HIV-1 RT) | other results |
| --- | --- | --- | --- | --- | --- | --- |
| Cc1cc(C=O)cc(C)c1Oc1cc(Oc2c(C)cc(C=O)cc2C)c2ccccc2n1 [Compound 1] | 2.62 ± 0.30 (≈ 6.16 µM) | 16.37 ± 0.56 (≈ 38.5 µM) | 21.55 ± 5.23 (≈ 50.6 µM) | 4.71 ± 0.30 (≈ 11.1 µM) | 42.08 | – |
| Cc1cc(C=O)cc(C)c1Oc1cc(Nc2ccc(C#N)cn2)nc2ccccc12 [Compound 4] | 4.98 ± 0.43 (≈ 12.6 µM) | 42.44 ± 0.48 (≈ 108 µM) | 36.53 ± 4.65 (≈ 92.6 µM) | 49.5 ± 0.71 (≈ 125 µM) | 62.23 | – |
| Cc1cc(C#N)cc(C)c1Oc1cc(Oc2c(C)cc(C#N)cc2C)c2ccccc2n1 [Compound 5] | ≥50 | 23.28 ± 2.40 (≈ 55.5 µM) | 38.67 ± 2.87 (≈ 92.2 µM) | 35.02 ± 4.65 (≈ 83.5 µM) | 40.31 | – |
| Cc1cc(C#N)cc(C)c1Oc1cc(Nc2ccc(C#N)cc2)nc2ccccc12 [Compound 6] | 19.04 ± 16.02 (≈ 48.8 µM) | ≥50 | ≥50 | ≥50 | 47.16 | – |
| N#Cc1ccc(Nc2cc(Oc3ccc(C#N)cc3)c3ccccc3n2)cc1 [Compound 7] | ≥50 | ≥50 | ≥50 | ≥50 | 39.71 | – |
| N#Cc1ccc(Oc2cc(Nc3ccc(C#N)cn3)nc3ccccc23)cc1 [Compound 8] | 5.12 ± 0.41 (≈ 14.1 µM) | 5.09 ± 0.81 (≈ 14 µM) | 39.96 ± 0.26 (≈ 110 µM) | 8.31 ± 0.33 (≈ 22.9 µM) | 27.61 | – |
| O=C1Nc2ccc(Cl)cc2[C@@](C#CC2CC2)(C(F)(F)F)O1 [EFV, efavirenz] | – | – | – | – | – | EC50 [2]: 315 µM |
| Cc1ccnc2c1NC(=O)c1cccnc1N2C1CC1 [NVP, nevirapine, reference compound] | – | – | – | – | – | inhibition at 1 µM (HIV-1 RT): 55.6% |
| Cc1cc(/C=C/C#N)cc(C)c1Nc1ccnc(Nc2ccc(C#N)cc2)n1 [TMC278, rilpivirine, reference compound] | – | – | – | – | – | inhibition at 1 µM (HIV-1 RT): 96.5% |
| COc1cccc2c1C(=O)c1c(O)c3c(c(O)c1C2=O)C[C@@](O)(C(=O)CO)C[C@@H]3O[C@H]1C[C@H](N)[C@H](O)[C@H](C)O1 [doxorubicin hydrochloride, reference compound] | – | – | – | – | – | IC50 (lung carcinoma; Homo sapiens, A549, read-out: IC50 (μg/mL) A549): 0.19 ± 0.01 µg/mL; IC50 (hepatocarcinoma): 0.23 ± 0.02 µg/mL; IC50 (cholangiocarcinoma; Homo sapiens, HuCC-A1, read-out: IC50 (μg/mL) HuCCA-1): 0.89 ± 0.04 µg/mL |
| COc1cc([C@@H]2c3cc4c(cc3[C@@H](O[C@@H]3O[C@@H]5CO[C@@H](C)O[C@H]5[C@H](O)[C@H]3O)[C@H]3COC(=O)[C@H]23)OCO4)cc(OC)c1O [etoposide, reference compound] | – | – | – | – | – | IC50 ([1]; Homo sapiens, MOLT-3, read-out: IC50 (μg/mL) MOLT-3): 0.048 ± 0.007 µg/mL (≈ 0.0816 µM); IC50 (hepatocarcinoma): 21.1 ± 0.7 µg/mL (≈ 35.9 µM) |
